Experimental data from ChEMBL document CHEMBL1201862, “PubChem BioAssay data set” (2004).
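All cell lines were grown in 96-well plates and treated with compound for 48 hours. GI50 marks 50% less growth.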 The source made the active and inactive calls. No stated cut-off is given here; in the data, active = GI50 up to about 1.1 µM and inactive = higher.

Key:
Assay in all cases: growth of human tumour cells (NCI), 48 h
HOP-92 = system: HOP-92
UACC-62 = system: UACC-62
HCC 2998 = system: HCC 2998
M14 = system: M14
SW-620 = system: SW-620
UACC-257 = system: UACC-257
Hs-578T = system: Hs-578T
UO-31 = system: UO-31
SF-539 = system: SF-539
NCI-H226 = system: NCI-H226
NCI/ADR-RES = system: NCI/ADR-RES
SR = system: SR
PC-3 = system: PC-3
BT-549 = system: BT-549
MDA-MB-231 = system: MDA-MB-231
HCT-116 = system: HCT-116
OVCAR-8 = system: OVCAR-8
COLO 205 = system: COLO 205
MDA-N = system: MDA-N
HOP-62 = system: HOP-62
A498 = system: A498
NCI-H522 = system: NCI-H522
HCT-15 = system: HCT-15
EKVX = system: EKVX
ACHN = system: ACHN
TK-10 = system: TK-10
NCI-H460 = system: NCI-H460
U-251 = system: U-251
LOX IMVI = system: LOX IMVI
Malme-3M = system: Malme-3M
SK-MEL-5 = system: SK-MEL-5
IGROV-1 = system: IGROV-1
A549 = system: A549
MDA-MB-435 = system: MDA-MB-435
RXF 393 = system: RXF 393
SNB-19 = system: SNB-19
OVCAR-3 = system: OVCAR-3
NCI-H23 = system: NCI-H23
RPMI-8226 = system: RPMI-8226
786-0 = system: 786-0
SF-268 = system: SF-268
OVCAR-5 = system: OVCAR-5
MCF7 = system: MCF7
DU-145 = system: DU-145
SNB-75 = system: SNB-75
T47D = system: T47D
SK-OV-3 = system: SK-OV-3
K562 = system: K562
OVCAR-4 = system: OVCAR-4
SK-MEL-28 = system: SK-MEL-28
HT-29 = system: HT-29
SK-MEL-2 = system: SK-MEL-2
SN12C = system: SN12C
CAKI-1 = system: CAKI-1
KM12 = system: KM12
SF-295 = system: SF-295
MOLT-4 = system: MOLT-4
HL-60 = system: HL-60
CCRF-CEM = system: CCRF-CEM

Cc1c(N2CCCC2)cc2c(c1NC(=O)c1ccccc1Cl)C(C)(C)CC2(C)C
GI50 (HOP-92): 11.5 µM (inactive) | GI50 (UACC-62): 10.8 µM (inactive) | GI50 (HCC 2998): 13.1 µM (inactive) | GI50 (M14): 13.5 µM (inactive) | GI50 (SW-620): 16 µM (inactive) | GI50 (UACC-257): 11.7 µM (inactive) | GI50 (Hs-578T): 16.7 µM (inactive) | GI50 (UO-31): 13.2 µM (inactive) | GI50 (SF-539): 19.8 µM (inactive) | GI50 (NCI-H226): 23.2 µM (inactive) | GI50 (NCI/ADR-RES): 13.4 µM (inactive) | GI50 (SR): 14.7 µM (inactive) | GI50 (PC-3): 15.5 µM (inactive) | GI50 (BT-549): 17.8 µM (inactive) | GI50 (MDA-MB-231): 15.4 µM (inactive) | GI50 (HCT-116): 10.6 µM (inactive) | GI50 (OVCAR-8): 16 µM (inactive) | GI50 (COLO 205): 18.2 µM (inactive) | GI50 (MDA-N): 13.9 µM (inactive) | GI50 (HOP-62): 14.2 µM (inactive) | GI50 (A498): 15 µM (inactive) | GI50 (NCI-H522): 13.1 µM (inactive) | GI50 (HCT-15): 14.6 µM | GI50 (EKVX): 14.5 µM (inactive) | GI50 (ACHN): 15 µM (inactive) | GI50 (TK-10): 11.1 µM (inactive) | GI50 (NCI-H460): 12.3 µM (inactive) | GI50 (U-251): 14.5 µM (inactive) | GI50 (LOX IMVI): 13.4 µM (inactive) | GI50 (Malme-3M): 17.7 µM (inactive) | GI50 (SK-MEL-5): 16.8 µM (inactive) | GI50 (IGROV-1): 13.6 µM (inactive) | GI50 (A549): 12.9 µM (inactive) | GI50 (MDA-MB-435): 14.4 µM (inactive) | GI50 (RXF 393): 14.3 µM (inactive) | GI50 (SNB-19): 15.2 µM (inactive) | GI50 (OVCAR-3): 8.3 µM (inactive) | GI50 (NCI-H23): 14.7 µM (inactive) | GI50 (RPMI-8226): 12.9 µM (inactive) | GI50 (786-0): 14.1 µM (inactive) | GI50 (SF-268): 15.4 µM (inactive) | GI50 (OVCAR-5): 18 µM (inactive) | GI50 (MCF7): 13.8 µM (inactive) | GI50 (DU-145): 15.9 µM (inactive) | GI50 (SNB-75): 15.5 µM (inactive) | GI50 (T47D): 11.5 µM (inactive) | GI50 (SK-OV-3): 13.1 µM (inactive) | GI50 (K562): 35 µM (inactive) | GI50 (OVCAR-4): 15.7 µM (inactive) | GI50 (SK-MEL-28): 17.6 µM (inactive) | GI50 (HT-29): 14.3 µM (inactive) | GI50 (SK-MEL-2): 16.3 µM (inactive) | GI50 (SN12C): 16.2 µM (inactive) | GI50 (CAKI-1): 13.3 µM (inactive) | GI50 (KM12): 15.3 µM (inactive) | GI50 (SF-295): 13.3 µM (inactive)

c1ccc2c(c1)nc1n2C2CCC(C2)N1 (stereo not drawn)
GI50 (HOP-92): > 10 µM (inactive) | GI50 (UACC-62): > 10 µM (inactive) | GI50 (HCC 2998): > 10 µM (inactive) | GI50 (M14): > 10 µM (inactive) | GI50 (SW-620): > 10 µM (inactive) | GI50 (UACC-257): > 10 µM (inactive) | GI50 (Hs-578T): > 10 µM (inactive) | GI50 (UO-31): > 10 µM (inactive) | GI50 (SF-539): > 10 µM (inactive) | GI50 (NCI-H226): > 10 µM (inactive) | GI50 (NCI/ADR-RES): > 10 µM (inactive) | GI50 (SR): > 10 µM (inactive) | GI50 (MOLT-4): > 10 µM (inactive) | GI50 (PC-3): > 10 µM (inactive) | GI50 (BT-549): > 10 µM (inactive) | GI50 (MDA-MB-231): > 10 µM (inactive) | GI50 (HCT-116): > 10 µM (inactive) | GI50 (OVCAR-8): > 10 µM (inactive) | GI50 (COLO 205): > 10 µM (inactive) | GI50 (MDA-N): > 10 µM (inactive) | GI50 (HOP-62): > 10 µM (inactive) | GI50 (A498): > 10 µM (inactive) | GI50 (NCI-H522): > 10 µM (inactive) | GI50 (HCT-15): > 10 µM | GI50 (EKVX): > 10 µM (inactive) | GI50 (TK-10): > 10 µM (inactive) | GI50 (NCI-H460): > 10 µM (inactive) | GI50 (U-251): > 10 µM (inactive) | GI50 (LOX IMVI): > 10 µM (inactive) | GI50 (Malme-3M): > 10 µM (inactive) | GI50 (SK-MEL-5): > 10 µM (inactive) | GI50 (IGROV-1): > 10 µM (inactive) | GI50 (A549): > 10 µM (inactive) | GI50 (MDA-MB-435): > 10 µM (inactive) | GI50 (RXF 393): > 10 µM (inactive) | GI50 (SNB-19): > 10 µM (inactive) | GI50 (OVCAR-3): > 10 µM (inactive) | GI50 (NCI-H23): > 10 µM (inactive) | GI50 (RPMI-8226): > 10 µM (inactive) | GI50 (786-0): > 10 µM (inactive) | GI50 (SF-268): > 10 µM (inactive) | GI50 (OVCAR-5): > 10 µM (inactive) | GI50 (HL-60): > 10 µM (inactive) | GI50 (MCF7): > 10 µM (inactive) | GI50 (DU-145): > 10 µM (inactive) | GI50 (SNB-75): 1.87 µM (inactive) | GI50 (T47D): > 10 µM (inactive) | GI50 (SK-OV-3): > 10 µM (inactive) | GI50 (K562): > 10 µM (inactive) | GI50 (OVCAR-4): > 10 µM (inactive) | GI50 (SK-MEL-28): > 10 µM (inactive) | GI50 (HT-29): > 10 µM (inactive) | GI50 (SK-MEL-2): > 10 µM (inactive) | GI50 (SN12C): > 10 µM (inactive) | GI50 (CAKI-1): > 10 µM (inactive) | GI50 (CCRF-CEM): > 10 µM (inactive) | GI50 (SF-295): > 10 µM (inactive)
